Test results published in US20240207265A1, “TREATMENT OF CNS DISEASES WITH sGC STIMULATORS” (Tisento Therapeutics Inc., priority 2021, published 2024).

How the values were obtained:
human α2β1 sGC isozyme = target: T1, human α2β1 sGC isozyme (Homo sapiens, UniProt P33402+Q02153); test: cGMP assay in CHO-K1 cells stably expressing human α2β1 sGC isozyme; type: cell-based; settings: 10 μM DETA-NONOate
T1 construct: host or cells: CHO-K1
T1 sequence (P33402 1-732): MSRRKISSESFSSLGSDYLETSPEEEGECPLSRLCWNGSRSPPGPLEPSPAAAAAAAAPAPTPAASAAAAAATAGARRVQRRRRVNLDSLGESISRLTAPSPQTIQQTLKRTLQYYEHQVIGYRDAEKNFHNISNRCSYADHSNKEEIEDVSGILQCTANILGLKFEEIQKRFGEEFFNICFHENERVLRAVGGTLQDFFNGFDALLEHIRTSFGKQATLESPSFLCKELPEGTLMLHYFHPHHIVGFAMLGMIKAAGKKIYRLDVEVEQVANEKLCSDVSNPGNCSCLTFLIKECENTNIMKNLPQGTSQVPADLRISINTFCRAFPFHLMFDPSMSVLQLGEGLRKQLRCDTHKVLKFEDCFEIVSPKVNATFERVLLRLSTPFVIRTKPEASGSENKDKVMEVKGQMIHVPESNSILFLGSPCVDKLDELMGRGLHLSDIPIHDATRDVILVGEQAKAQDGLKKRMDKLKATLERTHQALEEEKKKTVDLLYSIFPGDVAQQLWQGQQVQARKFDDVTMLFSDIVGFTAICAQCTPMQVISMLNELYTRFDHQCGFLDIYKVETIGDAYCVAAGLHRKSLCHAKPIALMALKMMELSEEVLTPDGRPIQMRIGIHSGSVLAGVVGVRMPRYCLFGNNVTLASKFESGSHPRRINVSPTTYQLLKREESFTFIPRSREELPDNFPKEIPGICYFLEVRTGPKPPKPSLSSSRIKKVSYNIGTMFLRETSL
T1 sequence (Q02153 1-619): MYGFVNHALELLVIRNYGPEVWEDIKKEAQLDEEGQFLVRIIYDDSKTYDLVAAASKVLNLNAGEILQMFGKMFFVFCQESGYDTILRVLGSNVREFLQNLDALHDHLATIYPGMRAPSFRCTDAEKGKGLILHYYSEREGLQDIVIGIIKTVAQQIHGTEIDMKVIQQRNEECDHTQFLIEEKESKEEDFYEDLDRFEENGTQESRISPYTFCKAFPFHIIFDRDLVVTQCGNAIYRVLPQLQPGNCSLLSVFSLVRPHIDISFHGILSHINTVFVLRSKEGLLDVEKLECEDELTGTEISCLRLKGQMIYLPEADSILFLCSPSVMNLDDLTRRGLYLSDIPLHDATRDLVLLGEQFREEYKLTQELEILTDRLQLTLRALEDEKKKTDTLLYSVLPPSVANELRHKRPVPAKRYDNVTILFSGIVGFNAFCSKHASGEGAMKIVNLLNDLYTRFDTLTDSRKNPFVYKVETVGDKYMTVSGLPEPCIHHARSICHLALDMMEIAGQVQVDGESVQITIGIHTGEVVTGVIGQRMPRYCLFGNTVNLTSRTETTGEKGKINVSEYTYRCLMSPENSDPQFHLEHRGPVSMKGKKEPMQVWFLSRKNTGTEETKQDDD
Description: sGC stimulators were dissolved in DMSO as a 10 mM solution and stored at −20° C. To achieve desired test concentrations, stock concentrations were serially diluted into DMSO and then diluted to the appropriate concentration in assay buffer.
CHO-K1 cells stably transfected with human α2β1 sGC isozyme (generated by GenScript for Ironwood) were cultured in F-12K medium (ATCC catalog #30-2004) with 10% fetal calf serum, 4 μg/mL puromycin (Gibco catalog #A11138-03) and 0.4 mg/mL of geneticin (Gibco catalog #10131-027) in a 95% humidified atmosphere containing 5% CO2 in air at 37° C. For GC activity assays, cells were seeded in 384 well poly-D-lysine coated flat bottom plates (Fisher Scientific #08-774-311) in either 50 μL or 70 μL medium at a density of either 3×10^4 cells/well or 15×10^3, respectively. Cells were incubated for 24 hours at 37° C. in a humidified chamber supplemented with 5% CO2.
For each test concentration, the compound was diluted in 100% DMSO to 100-fold of its final assay concentration. Immediately prior to the assay, the solution was diluted 20-fold into HBSS containing calcium, magnesium, and 50 μM DETA-NONOate (5× the final assay concentration). Medium was removed and cells were washed once with 40 μL of HBSS. Cells were then incubated with 40 μL of a solution containing 0.5 mM IBMX in HBSS for 15 min at 37° C. 10 μL from the sGC stimulator/HBSS/DETA-NONOate plate was added to the cells, which were incubated for an additional 20 min at 37° C. Final DMSO concentration was 1%, final DETA-NONOate concentration was 10 μM; and final compound concentrations were 30,000 nM, 6000 nM, 1200 nM, 240 nM, 48 nM, 9.6 nM, 1.92 nM, 0.384 nM, 0.077 nM, 0.015 nM, or 0.003 nM.
Following incubation with compound, assay buffer was removed and 50 μL of ice-cold 10% acetic acid+150 ng/mL internal standard (+3 cGMP) was added to each well. Samples were incubated on ice for 30-60 min. Following centrifugation at 4° C. for 5 min at 1000×g to pellet cell debris, the supernatant was transferred to a clean plate and the samples analyzed for cGMP content.
(§1) Data were analyzed with a 4-parameter fit (log(agonist) vs. response-variable slope) using GraphPad Prism Software v.8. The EC50 was interpolated from the curve fit and is defined as the concentration at which the compound elicits 50% of its maximal response. When the experiment was carried out multiple times for a given compound, the geometrical mean of all experiments is reported.

sGC enzyme = test: cGMP GloSensor cell-based assay, 384-well format (HEK293); parameters: species or system human; settings: HEK293 GloSensor 40F cGMP cells, 10 μM DETA-NONOate, geometrical mean; read-out: Glo EC50
From the text: Human embryonic kidney cells (HEK293) cells expressing GloSensor™ 40F cGMP (Part No: CS182801, Promega) were used to evaluate the activity of test compounds. The luminescent biosensors (engineered luciferase) that were incorporated into these cells detect cGMP formed by the compounds stimulating the sGC enzyme and emit luminescence.
cGMP GloSensor cells were maintained in Dulbecco's Modification of Eagle's Medium (DMEM) supplemented with fetal bovine serum (FBS, 10% final) and hygromycine (200 ug/ml). The day before assay, cells were plated in DMEM with 10% FBS in a 50 μL volume at a density of 1.5×10^4 cells/well in a poly-D-lysine coated 384-well flat white-bottom plate (Corning Cat No 35661). Cells were incubated overnight at 37° C. in a humidified chamber with 5% CO2. The next day, medium was removed and cells were replaced with 40 ul/well of GloSensor™, 2 mM (Promega Cat No E1291). Cells were treated for 90 minutes at 25° C. to allow the substrate to equilibrate in the cells. Test compounds and Diethylenetriamine NONOate (DETA-NONOate) was diluted to 3 mM (20×) in serum-free CO2 independent medium and serially diluted at 4× dilutions to create 5× dose curve from which 10 ul was added to the wells (x μM concentration for test compound solution and 10 μM concentration for DETA-NONOate solution; wherein x is one of the following final concentrations: 30 μM, 7.5 μM, 1.9 μM, 469 nM, 117 nM, 29.3 nM, 7.3 nM, 1.83 nM, 0.46 nM, 0.11 nM, 0.03 nM) For the kinetics studies, luminescense was measured right away for 0.2 sec per well with Envision (Perkin Elmer). For endpoint SAR screening, data were collected after 55 min incubation at room temperature.
as §1, with “Concentration response data” for “Data”, “using” for “with”, “(log (agonist)” for “(log(agonist)”, “slope).” for “slope) using GraphPad Prism Software v.8.”

Cc1cc(F)c(Cc2nc(-c3ncc(Cl)c(O)n3)cn3ccnc23)cc1F [Compound I-17, 5-Chloro-2-(8-(2,5-difluoro-4-methylbenzyl)imidazo[1,2-a]pyrazin-6-yl)pyrimidin-4-ol]
EC50 (human α2β1 sGC isozyme): ≤ 100 nM
EC50 (sGC enzyme): ≤ 100 nM
